Experimental data from patent publication US12281138B2, “5′-cap-trinucleotide- or higher oligonucleotide compounds and their use in stabilizing RNA, expressing proteins in therapy” (BioNTech RNA Pharmaceuticals GmbH, priority 2018, dated 2025).

Assays:
[1] = system: human immature dendritic cells (hiDCs); experiment: Luciferase reporter mRNA translation in human immature dendritic cells; format: cell-based; settings: co-transcriptionally capped Luciferase mRNA, 700 ng per well, liposome formulated, recorded over 72 h
Protocol: As a functional assay of cap analog incorporation, and as a test of translatability of the resulting cap structure, differently capped mRNA encoding a Luciferase reporter was transfected into human immature dendritic cells (hiDCs). For that, 700 ng capped RNA per well were formulated with liposomes as described in Kranz et al., Nature 534, 396-401 (2016), and added to a 96-well containing 5E04 hiDCs. Subsequently, reporter activity was recorded over 72 h.

Balb/c mice = experiment: Luciferase mRNA expression in vivo, bioluminescence imaging after intravenous application; settings: 10 μg RNA per mouse, i.v.

Substance | translation in hiDCs (luciferase reporter activity) relative to mRNA capped with the corresponding D1 or D2 diastereomer of beta-S-ARCA [1] | in vivo luciferase protein levels compared to all cap0 RNAs (Balb/c mice; all time points) | in vivo luciferase protein levels compared to enzymatically capped cap1 mRNA (Balb/c mice; at the other time points)
m2^7,2′-OGppSpm^2′-OGpG [Compound 1 (D1)] | comparable levels |  | 
m2^7,2′-OGppSpm^2′-OGpG [Compound 1] |  | always higher levels | only slightly lower levels
